# Assay results reported in ChEMBL document CHEMBL1140628, “Assessing potency of c-Jun N-terminal kinase 3 (JNK3) inhibitors using 2D molecular descriptors and binary QSAR methodology” (Bioorg Med Chem, 2007).
# Target: Mitogen-activated protein kinase 10 (Homo sapiens, UniProt P53779)
# Test: Inhibition of JNK3
# Chain of Mitogen-activated protein kinase 10 (P53779 whole entry): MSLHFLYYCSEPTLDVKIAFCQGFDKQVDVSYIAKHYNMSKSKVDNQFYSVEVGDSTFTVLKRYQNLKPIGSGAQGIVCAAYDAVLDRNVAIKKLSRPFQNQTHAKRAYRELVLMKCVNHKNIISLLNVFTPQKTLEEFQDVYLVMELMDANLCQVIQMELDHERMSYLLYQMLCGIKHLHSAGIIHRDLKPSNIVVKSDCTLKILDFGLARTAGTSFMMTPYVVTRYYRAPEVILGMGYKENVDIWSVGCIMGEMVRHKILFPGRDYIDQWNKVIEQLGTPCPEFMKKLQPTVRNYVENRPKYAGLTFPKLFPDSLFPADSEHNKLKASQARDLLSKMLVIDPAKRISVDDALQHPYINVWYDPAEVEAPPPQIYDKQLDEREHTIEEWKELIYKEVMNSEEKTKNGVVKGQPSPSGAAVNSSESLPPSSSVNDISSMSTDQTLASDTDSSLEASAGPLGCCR
row,Compound,IC50
1,CCCn1c(C2CCN(C)CC2)nc(-c2ccc(Cl)c(Cl)c2)c1-c1ccnc(NC2CC2)n1,1.6 nM
2,NC1=CC=C2SN=C3c4ccccc4C(=O)C1C23 (stereo not given),400 nM
3,N#C/C(=C1/Nc2ccccc2S1)c1ccnc(NCCc2ccc(S(N)(=O)=O)cc2)n1,41 nM
4,COc1ccc(CCNc2nccc(/C(C#N)=C3\Nc4ccccc4S3)n2)cc1,3.1 nM
5,Oc1c2ccccc2c2c3c(cccc13)N=N2 [SP-600125],190 nM
